Measurements: patent US20060169172A1, “Disazo compound and ink composition containing the same” (priority 2003, published 2006)

Experiments:
Type in all cases: physicochemical
[1] = Moisture fastness test (bleeding, visual inspection); parameters: key: ◯: No bleeding is observed.; Δ: Bleeding is a little observed.; X: Bleeding is seriously observed; conditions: 50° C., 90% RH, 150 hours
Description: (§1) The solution of the composition shown in Table 2 below, containing the disazo compound (a dyestuff component) obtained in Example 1 or 2 was prepared and filtered with a 0.45 μm membrane filter to obtain each water-based yellow ink composition for ink-jet printing. Ion-exchange water was used. Water and ammonium hydroxide were added so that the pH of the ink composition is 8 to 10 and the total amount is 100 parts.
(§2) Ink-jet recording is carried out on four kinds of recording materials of plain paper, Professional photo paper (PR-101 (made by Canon Inc.)), Photo glossy film (HG-201 (made by Canon Inc.)) and Paper for PM photo (made by SEIKO EPSON CORP.), using an ink-jet printer (Trade name: BJ S-630 from Canon Inc.) (hereinafter, described as follows, PR: Professional photo paper, HG: Photo glossy film, PM: Paper for PM photo).
(§3) A sample piece having a recorded image printed on the sample piece was left for standing at 24° C., 12 ppm and 60% RH for 2 hours using an ozone weather meter (Model OMS-H made by Suga Test Instruments Co., Ltd.). Densities (D values) before and after the test were measured. (4) A sample piece having a recorded image printed on the sample piece for a moisture fastness test was left for standing at 50° C. and 90% RH for 150 hours in a thermo-hygrostat (made by Ouyou giken sangyou Corp.). Bleeding degrees before and after the test was evaluated by visual inspection.
◯: No bleeding is observed.
Δ: Bleeding is a little observed.
X: Bleeding is seriously observed.
(§4) The results of evaluation of the ink composition prepared using the compound obtained in Example 1 are referred to Evaluation Example 1, and similarly the results of evaluation of the ink composition prepared using the compound obtained in Example 2 are referred to Evaluation Example 2. The compound represented by the following formula (6) and the compound represented by the following formula (7) were used as Comparative Example 1 and Comparative Example 2 and those were evaluated at the same optical density as those of Evaluation Examples 1 and 2 in the composition shown in Table 2.

[2] = Test for light fastness (xenon weather meter); conditions: 24° C., 60% RH, 50 hours
Description: as §1, §2
The recorded image was irradiated at 24° C. and 60% RH for 50 hours using a xenon weather meter (made by Atlas Corp.). Densities (D values) of the images before and after the irradiation were measured by means of the above calorimetric system.
Residual ratio (%)=D value after irradiation/D value before irradiation
as §4

[3] = Test for ozone fastness (ozone weather meter); conditions: 24° C., 12 ppm, 60% RH, 2 hours
Description: as §1, §2, §3, §4

Row | Moisture Fastness ([1]; HG (Photo glossy film)) | Moisture Fastness ([1]; PM (Paper for PM photo)) | Moisture Fastness ([1]; PR (Professional photo paper)) | Moisture Fastness ([1]; Plain Paper) | Light Fastness (residual ratio) ([2]; HG (Photo glossy film)) | Light Fastness (residual ratio) ([2]; PM (Paper for PM photo)) | Light Fastness (residual ratio) ([2]; PR (Professional photo paper)) | Light Fastness (residual ratio) ([2]; Plain Paper) | Ozone Fastness (residual ratio) ([3]; HG (Photo glossy film)) | Ozone Fastness (residual ratio) ([3]; PM (Paper for PM photo)) | Ozone Fastness (residual ratio) ([3]; PR (Professional photo paper)) | Ozone Fastness (residual ratio) ([3]; Plain Paper) | SMILES
1 | ◯-Δ | ◯-Δ | ◯ | ◯ | 67% | 86% | 80% | 78% | 91% | 97% | 89% | 99% | COc1cc(N=Nc2cccc(S(=O)(=O)[O-])c2)ccc1Nc1nc(Nc2ccc(N=Nc3cccc(S(=O)(=O)[O-])c3)cc2OC)nc(N(CCO)CCO)n1.[Na+].[Na+] [Comparative Example 1]
2 | Δ | X | ◯ | ◯ | 63% | 94% | 82% | 81% | 74% | 97% | 82% | 98% | COc1cc(N=Nc2cccc(S(=O)(=O)[O-])c2)ccc1NC(=O)Nc1ccc(N=Nc2cccc(S(=O)(=O)[O-])c2)cc1OC.[Na+].[Na+] [Comparative Example 2]
